# Results: ChEMBL document CHEMBL1135513 (J Med Chem, 2002)
# What was measured:
# [1] = target: T1, GABA-A receptor; alpha-1/beta-2/gamma-2 (Homo sapiens, UniProt P14867+P18507+P47870); experiment: Potentiation of GABA responses at human Gamma-aminobutyric acid A receptor alpha-1-beta-2-gamma-2; type: protein-complex assay
# T1 sequence (P14867 whole entry): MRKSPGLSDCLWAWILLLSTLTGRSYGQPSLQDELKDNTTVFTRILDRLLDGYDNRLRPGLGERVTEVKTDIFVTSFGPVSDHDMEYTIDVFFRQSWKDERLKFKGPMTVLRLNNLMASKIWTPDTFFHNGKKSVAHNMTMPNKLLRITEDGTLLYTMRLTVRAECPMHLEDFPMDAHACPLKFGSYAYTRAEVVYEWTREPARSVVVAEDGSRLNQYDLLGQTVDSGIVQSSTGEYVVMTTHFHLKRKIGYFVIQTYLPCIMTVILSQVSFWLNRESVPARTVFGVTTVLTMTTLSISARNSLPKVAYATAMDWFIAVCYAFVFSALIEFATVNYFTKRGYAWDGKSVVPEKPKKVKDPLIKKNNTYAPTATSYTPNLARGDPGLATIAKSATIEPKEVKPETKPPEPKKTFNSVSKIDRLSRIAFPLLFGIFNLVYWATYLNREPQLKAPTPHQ
# T1 sequence (P47870 whole entry): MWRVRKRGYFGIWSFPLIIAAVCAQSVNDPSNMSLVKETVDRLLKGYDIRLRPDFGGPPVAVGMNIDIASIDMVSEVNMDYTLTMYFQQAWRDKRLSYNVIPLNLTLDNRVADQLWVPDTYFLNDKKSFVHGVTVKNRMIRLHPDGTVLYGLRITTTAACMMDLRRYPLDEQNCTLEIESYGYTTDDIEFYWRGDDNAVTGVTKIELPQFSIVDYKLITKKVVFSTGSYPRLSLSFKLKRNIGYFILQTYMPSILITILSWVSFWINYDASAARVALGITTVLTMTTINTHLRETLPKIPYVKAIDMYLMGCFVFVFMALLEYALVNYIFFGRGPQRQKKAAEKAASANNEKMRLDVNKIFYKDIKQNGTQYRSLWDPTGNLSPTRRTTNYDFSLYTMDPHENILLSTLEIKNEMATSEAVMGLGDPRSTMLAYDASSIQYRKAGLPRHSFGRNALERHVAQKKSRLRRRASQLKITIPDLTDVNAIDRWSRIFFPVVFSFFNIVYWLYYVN
# T1 sequence (P18507 whole entry): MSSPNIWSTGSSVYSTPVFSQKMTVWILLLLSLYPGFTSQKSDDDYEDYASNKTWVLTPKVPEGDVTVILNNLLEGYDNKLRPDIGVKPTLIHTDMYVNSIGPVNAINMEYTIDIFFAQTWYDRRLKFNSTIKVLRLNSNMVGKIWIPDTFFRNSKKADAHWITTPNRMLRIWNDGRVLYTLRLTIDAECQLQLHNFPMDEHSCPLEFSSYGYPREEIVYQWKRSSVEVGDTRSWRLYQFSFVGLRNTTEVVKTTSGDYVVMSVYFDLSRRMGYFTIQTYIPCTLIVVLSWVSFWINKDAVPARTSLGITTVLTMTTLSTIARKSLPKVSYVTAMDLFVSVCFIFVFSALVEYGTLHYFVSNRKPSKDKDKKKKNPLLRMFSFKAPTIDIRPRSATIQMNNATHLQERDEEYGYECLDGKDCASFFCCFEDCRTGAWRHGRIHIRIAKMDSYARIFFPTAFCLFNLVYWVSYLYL
# [2] = target: T1, GABA-A receptor; alpha-1/beta-2/gamma-2; experiment: Direct activation of human Gamma-aminobutyric acid A receptor alpha-1-beta-2-gamma-2; type: protein-complex assay
# Xenopus laevis [3] = experiment: Loss of righting reflex (LORR) in tadpoles was determined for anesthetic activity; type: functional, organism-based, frog; details: Tadpole
# Xenopus laevis [4] = experiment: Loss of righting reflex (LORR) in Xenopus laevis tadpoles was determined for anesthetic activity; type: functional, organism-based, frog; details: Tadpole
Structure (SMILES),EC50 [1] [µM],EC50 [2] [µM],EC50 (Xenopus laevis [3]) [µM],EC50 (Xenopus laevis [4]) [µM]
Oc1c(C2CCCCC2)cccc1C1CCCCC1,100000,,,
CC(C)Cc1cccc(CC(C)C)c1O,2.51,20,0.398,
CCc1cccc(CC)c1N=C=S,15.8,316,158,
Oc1ccccc1C1CCCC1,100000,,,
CCc1cccc(CC)c1N=C=O,25.1,251,158,
CC(C)c1cc(O)c(O)c(C(C)C)c1,39.8,200,50.1,
CCc1cccc(CC)c1Br,20,126,158,
Cc1cccc(C(C)(C)C)c1O,0.501,20,31.6,
CCc1cccc(CC)c1O,12.6,126,20,
CC(C)c1ccccc1O,39.8,158,126,
Cc1cccc(C)c1O,126,200,63.1,
CC(C)(C)c1cc(O)cc(C(C)(C)C)c1,100,501,100,
CC(C)c1cc(I)cc(C(C)C)c1O,10,31.6,,2.51
Oc1ccccc1 [PHENOL],1000,,1580,
CC(C)c1cccc(C(C)C)c1O [PROPOFOL],2,10,2,
COc1cccc(OC)c1O [SYRINGOL],100000,,,
